# Tested on: human T lymphocytes
# Test: PHA-induced lymphocyte proliferation (3H-TdR incorporation)
# Type: cell-based
# Conditions: compared with 18:1ω9, 18:0 and 18:2; preliminary studies (FIG. 24)
# Protocol: Lymphocyte proliferation was measured by a semi-automated microtechnique (12). Human mononuclear cells (2×10^5) were seeded into u-bottomed wells of a micro-titre plate (50 μl) and treated with 500 of the ethanol emu oil fraction. After 30 min incubation, […] PHA was added to stimulate the T lymphocytes. The cells were incubated for 72 h at 37° C. in an atmosphere of 5% CO2-air and high humidity. At 6 h prior to harvest, the cultures were pulsed with 1 μCi of ^3H-TdR. The cells were harvested and the amount of radioactivity incorporated measured in a liquid scintillation counter.
# Makin emu oil was subjected to solubility in ethanol. This ethanol soluble oil fraction was then tested for ability to depress proliferation of mitogen stimulated human lymphocytes. The mononuclear cells were isolated from peripheral blood and pretreated for 30 min with dilutions of the fraction and then challenged with phytohaemagglutinin (PHA). Proliferation of lymphocytes was measured after 48 hours using ^3H-TdR incorporation as a marker for DNA synthesis.
smiles,measurement,value
"CCCCC/C=C\C/C=C\CCCCCCCC(=O)O [18:2ω6, Linoleic acid (18:2ω6)]",inhibition of T lymphocyte and mononuclear cell responses by fatty acids,strongly inhibitory

# — patent US20050123479A1, “Therapeutic properties of oils” (priority 2002, published 2005)
